The test system of the experiment is TPM3-NTRK1-wt IC50 / primary target (e.g. CD74-ROS1-wt) IC50, Ba/F3 cells. As to the kind of experiment: Cell assay TRKA selectivity (TRKA potency divided by primary target potency). Type of experiment: cell-based. The following applies: for TPM3-NTRK1-wt/CD74-ROS1-G2032R: TRKA selectivity ratio: TPM3-NTRK1-wt IC50 / CD74-ROS1-G2032R IC50, Ba/F3 cells; for TPM3-NTRK1-wt/CD74-ROS1-wt: TRKA selectivity ratio: TPM3-NTRK1-wt IC50 / CD74-ROS1-wt IC50, Ba/F3 cells; for TPM3-NTRK1-wt/EML4-ALK-L1196M-G1202R: TRKA selectivity ratio: TPM3-NTRK1-wt IC50 / EML4-ALK-L1196M-G1202R IC50, Ba/F3 cells; for TPM3-NTRK1-wt/EML4-ALK-wt: TRKA selectivity ratio: TPM3-NTRK1-wt IC50 / EML4-ALK-wt IC50, Ba/F3 cells. An outline of the steps:
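IL-3-independent Ba/F3 lines stably expressing TPM3-TRKA or the primary fusion (e.g. CD74-ROS1 wt) were exposed to 3-fold compound dilutions for 72 h. Viability was read by CellTiter-Glo luminescence, with IC50 from four-parameter logistic fit. Selectivity is TPM3-NTRK1 IC50 divided by primary-target IC50, binned A (>30-fold) to D (<1).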

Take `C[C@H]1Oc2cc(cnc2N)-c2c(cnn2CC2CC2)Cc2cn(C)nc2-c2ccc(F)cc21` [Example 121, (19R)-3-(cyclopropylmethyl)-16-fluoro-10,19-dimethyl-20-oxa-3,4,10,11,23-pentaazapentacyclo[19.3.1.0^2,^6.0^8,^12.0^13,^18]pentacosa-1(24),2(6),4,8,11,13,15,17,21(25),22-decaen-22-amine]: the TPM3-NTRK1-wt/CD74-ROS1-G2032R result is recorded as “A (bin A for very high selectivity, ratio>30-fold)”; the TPM3-NTRK1-wt/CD74-ROS1-wt entry is on record as “A (bin A for very high selectivity, ratio>30-fold)”; the TPM3-NTRK1-wt/EML4-ALK-L1196M-G1202R result is “A (bin A for very high selectivity, ratio>30-fold)”; the TPM3-NTRK1-wt/EML4-ALK-wt result is listed as “A (bin A for very high selectivity, ratio>30-fold)”.
`C[C@H]1Oc2cc(cnc2N)-c2c(nnn2CC2CC2)Cc2cc(C(F)F)nn2-c2ccc(F)cc21` [Example 122, (19R)-3-(cyclopropylmethyl)-10-(difluoromethyl)-16-fluoro-19-methyl-20-oxa-3,4,5,11,12,23-hexaazapentacyclo[19.3.1.0^2,^6.0^8,^12.0^13,^18]pentacosa-1(24),2(6),4,8,10,13,15,17,21(25),22-decaen-22-amine]: the TPM3-NTRK1-wt/CD74-ROS1-G2032R result is on record as “A (bin A for very high selectivity, ratio>30-fold)”; the TPM3-NTRK1-wt/CD74-ROS1-wt entry is recorded as “A (bin A for very high selectivity, ratio>30-fold)”; the TPM3-NTRK1-wt/EML4-ALK-L1196M-G1202R entry is reported as “C (bin C for moderate selectivity, ratio≥1)”; the TPM3-NTRK1-wt/EML4-ALK-wt entry was “B (bin B for high selectivity, ratio>10-fold)”.
For the molecule `C[C@H]1Oc2cc(cnc2N)-c2c(c(C#N)nn2CC2CC2)Cc2cccnc2-c2ccc(F)cc21` [Example 123, (20R)-23-amino-3-(cyclopropylmethyl)-17-fluoro-20-methyl-21-oxa-3,4,12,24-tetraazapentacyclo[20.3.1.0^2,^6.0^8,^13.0^14,^19]hexacosa-1(25),2(6),4,8(13),9,11,14,16,18,22(26),23-undecaene-5-carbonitrile], the TPM3-NTRK1-wt/CD74-ROS1-G2032R result was “C (bin C for moderate selectivity, ratio≥1)”; the TPM3-NTRK1-wt/CD74-ROS1-wt entry is reported as “A (bin A for very high selectivity, ratio>30-fold)”; the TPM3-NTRK1-wt/EML4-ALK-L1196M-G1202R entry is on record as “C (bin C for moderate selectivity, ratio≥1)”; the TPM3-NTRK1-wt/EML4-ALK-wt result is “A (bin A for very high selectivity, ratio>30-fold)”.
As to `COc1cc2n(n1)-c1ccc(F)cc1[C@@H](C)Oc1cc(cnc1N)-c1c(c(C)nn1CC1CC1)C2` [Example 124, (19R)-3-(cyclopropylmethyl)-16-fluoro-10-methoxy-5,19-dimethyl-20-oxa-3,4,11,12,23-pentaazapentacyclo[19.3.1.0^2,^6.0^8,^12.0^13,^18]pentacosa-1(24),2(6),4,8,10,13,15,17,21(25),22-decaen-22-amine], the TPM3-NTRK1-wt/CD74-ROS1-G2032R entry is reported as “A (bin A for very high selectivity, ratio>30-fold)”; the TPM3-NTRK1-wt/CD74-ROS1-wt result is “A (bin A for very high selectivity, ratio>30-fold)”; the TPM3-NTRK1-wt/EML4-ALK-L1196M-G1202R result was “A (bin A for very high selectivity, ratio>30-fold)”; the TPM3-NTRK1-wt/EML4-ALK-wt entry is recorded as “A (bin A for very high selectivity, ratio>30-fold)”.
In the case of `Cc1nn(CC2CC2)c2c1Cc1cc(C(F)F)nn1-c1ccc(F)cc1[C@@H](C)Oc1cc-2cnc1N` [Example 125, (19R)-3-(cyclopropylmethyl)-10-(difluoromethyl)-16-fluoro-5,19-dimethyl-20-oxa-3,4,11,12,23-pentaazapentacyclo[19.3.1.0^2,^6.0^8,^12.0^13,^18]pentacosa-1(24),2(6),4,8,10,13,15,17,21(25),22-decaen-22-amine], the TPM3-NTRK1-wt/CD74-ROS1-G2032R result is “A (bin A for very high selectivity, ratio>30-fold)”; the TPM3-NTRK1-wt/CD74-ROS1-wt result is listed as “A (bin A for very high selectivity, ratio>30-fold)”; the TPM3-NTRK1-wt/EML4-ALK-L1196M-G1202R entry is “A (bin A for very high selectivity, ratio>30-fold)”; the TPM3-NTRK1-wt/EML4-ALK-wt entry is “A (bin A for very high selectivity, ratio>30-fold)”.
Take `Cc1cc2n(n1)-c1ccc(F)cc1COc1cc(cnc1N)-c1c(cnn1CC1CC1)C2` [Example 126, 3-(cyclopropylmethyl)-16-fluoro-10-methyl-20-oxa-3,4,11,12,23-pentaazapentacyclo[19.3.1.0^2,^6.0^8,^12.0^13,^18]pentacosa-1(24),2(6),4,8,10,13,15,17,21(25),22-decaen-22-amine]: the TPM3-NTRK1-wt/CD74-ROS1-G2032R result is “A (bin A for very high selectivity, ratio>30-fold)”; the TPM3-NTRK1-wt/CD74-ROS1-wt result is reported as “A (bin A for very high selectivity, ratio>30-fold)”; the TPM3-NTRK1-wt/EML4-ALK-L1196M-G1202R entry is given as “A (bin A for very high selectivity, ratio>30-fold)”; the TPM3-NTRK1-wt/EML4-ALK-wt entry is recorded as “A (bin A for very high selectivity, ratio>30-fold)”.
For `Cc1nn(CC2CC2)c2c1Cc1cn(C)nc1-c1ccc(F)cc1COc1cc-2cnc1N` [Example 127, 3-(cyclopropylmethyl)-16-fluoro-5,10-dimethyl-20-oxa-3,4,10,11,23-pentaazapentacyclo[19.3.1.0^2,^6.0^8,^12.0^13,^18]pentacosa-1(24),2(6),4,8,11,13,15,17,21(25),22-decaen-22-amine], the TPM3-NTRK1-wt/CD74-ROS1-G2032R entry was “A (bin A for very high selectivity, ratio>30-fold)”; the TPM3-NTRK1-wt/CD74-ROS1-wt entry was “A (bin A for very high selectivity, ratio>30-fold)”; the TPM3-NTRK1-wt/EML4-ALK-L1196M-G1202R result is listed as “A (bin A for very high selectivity, ratio>30-fold)”; the TPM3-NTRK1-wt/EML4-ALK-wt result is listed as “A (bin A for very high selectivity, ratio>30-fold)”.
`C[C@H]1Oc2cc(cnc2N)-c2c(nnn2CC2CC2)Cc2cc(C(F)(F)F)nn2-c2ccc(F)cc21` [Example 128, (19R)-3-(cyclopropylmethyl)-16-fluoro-19-methyl-10-(trifluoromethyl)-20-oxa-3,4,5,11,12,23-hexaazapentacyclo[19.3.1.0^2,^6.0^8,^12.0^13,^18]pentacosa-1(24),2(6),4,8,10,13,15,17,21(25),22-decaen-22-amine]: the TPM3-NTRK1-wt/CD74-ROS1-G2032R entry is “A (bin A for very high selectivity, ratio>30-fold)”; the TPM3-NTRK1-wt/CD74-ROS1-wt entry is reported as “A (bin A for very high selectivity, ratio>30-fold)”; the TPM3-NTRK1-wt/EML4-ALK-L1196M-G1202R result is listed as “C (bin C for moderate selectivity, ratio≥1)”; the TPM3-NTRK1-wt/EML4-ALK-wt entry is recorded as “B (bin B for high selectivity, ratio>10-fold)”.
As to `C[C@H]1Oc2cc(cnc2N)-c2c(cnn2CC2CC2)Cc2cc(C(F)F)nn2-c2ccc(F)cc21` [Example 130, (19R)-3-(cyclopropylmethyl)-10-(difluoromethyl)-16-fluoro-19-methyl-20-oxa-3,4,11,12,23-pentaazapentacyclo[19.3.1.0^2,^6.0^8,^12.0^13,^18]pentacosa-1(24),2(6),4,8,10,13,15,17,21(25),22-decaen-22-amine], the TPM3-NTRK1-wt/CD74-ROS1-G2032R result is reported as “A (bin A for very high selectivity, ratio>30-fold)”; the TPM3-NTRK1-wt/CD74-ROS1-wt entry is “A (bin A for very high selectivity, ratio>30-fold)”; the TPM3-NTRK1-wt/EML4-ALK-L1196M-G1202R result was “B (bin B for high selectivity, ratio>10-fold)”; the TPM3-NTRK1-wt/EML4-ALK-wt result is listed as “A (bin A for very high selectivity, ratio>30-fold)”.
In the case of `CCn1ncc2c1-c1cnc(N)c(c1)O[C@H](C)c1cc(F)ccc1-c1nc(C)oc1C2` [Example 131, (19R)-3-ethyl-16-fluoro-10,19-dimethyl-9,20-dioxa-3,4,11,23-tetraazapentacyclo[19.3.1.0^2,^6.0^8,^12.0^13,^18]pentacosa-1(24),2(6),4,8(12),10,13,15,17,21(25),22-decaen-22-amine], the TPM3-NTRK1-wt/CD74-ROS1-G2032R result was “B (bin B for high selectivity, ratio>10-fold)”; the TPM3-NTRK1-wt/CD74-ROS1-wt result is given as “A (bin A for very high selectivity, ratio>30-fold)”; the TPM3-NTRK1-wt/EML4-ALK-L1196M-G1202R result is recorded as “C (bin C for moderate selectivity, ratio≥1)”; the TPM3-NTRK1-wt/EML4-ALK-wt result is reported as “B (bin B for high selectivity, ratio>10-fold)”.
For `C[C@H]1Oc2cc(cnc2N)-c2c(C#N)nn(C)c2Cc2cc(C(F)F)nn2-c2ccc(F)cc21` [Example 132, (19R)-22-amino-10-(difluoromethyl)-16-fluoro-5,19-dimethyl-20-oxa-4,5,11,12,23-pentaazapentacyclo[19.3.1.0^2,^6.0^8,^12.0^13,^18]pentacosa-1(24),2(6),3,8,10,13,15,17,21(25),22-decaene-3-carbonitrile], the TPM3-NTRK1-wt/CD74-ROS1-G2032R entry is “A (bin A for very high selectivity, ratio>30-fold)”; the TPM3-NTRK1-wt/CD74-ROS1-wt result is listed as “A (bin A for very high selectivity, ratio>30-fold)”; the TPM3-NTRK1-wt/EML4-ALK-L1196M-G1202R entry was “C (bin C for moderate selectivity, ratio≥1)”; the TPM3-NTRK1-wt/EML4-ALK-wt result was “A (bin A for very high selectivity, ratio>30-fold)”.
On to `C[C@H]1Oc2cc(cnc2N)-c2c(c(Cl)nn2CC2CC2)Cc2cn(C)nc2-c2ccc(F)cc21` [Example 133, (19R)-5-chloro-3-(cyclopropylmethyl)-16-fluoro-10,19-dimethyl-20-oxa-3,4,10,11,23-pentaazapentacyclo[19.3.1.0^2,^6.0^8,^12.0^13,^18]pentacosa-1(24),2(6),4,8,11,13,15,17,21(25),22-decaen-22-amine], for which the TPM3-NTRK1-wt/CD74-ROS1-G2032R entry is listed as “A (bin A for very high selectivity, ratio>30-fold)”; the TPM3-NTRK1-wt/CD74-ROS1-wt result is recorded as “A (bin A for very high selectivity, ratio>30-fold)”; the TPM3-NTRK1-wt/EML4-ALK-L1196M-G1202R entry is given as “A (bin A for very high selectivity, ratio>30-fold)”; the TPM3-NTRK1-wt/EML4-ALK-wt entry is reported as “A (bin A for very high selectivity, ratio>30-fold)”.

The record behind these values is patent publication US11667649B2, “Heteroaromatic macrocyclic ether chemotherapeutic agents” (Nuvalent, Inc., priority 2020, dated 2023).
